According to patent US9493468B2, “Antifungal 5,6-dihydro-4H-pyrrolo[1,2-a][1,4]benzo-diazepines and 6H-pyrrolo[1,2-a][1,4]benzodiazepines substituted with heterocyclic derivatives” (Janssen Pharmaceutica NV, priority 2011, dated 2016):

Key:
Format in all cases: cell-based
[1] = tested on: Trichophyton mentagrophytes; test: Antifungal activity in vitro, resazurin growth inhibition: Trichophyton mentagrophytes (B70554)
Outline: (§1)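 Dermatophytes incubated at 27° C. for one week or more with compound, max 64 μM, in RPMI-1640/MOPS pH 7.0±0.1, 10^3 cfu/well. Viability by resazurin-to-resorufin fluorescence, 550/590 nm.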

[2] = tested on: Scedosporium prolificans; test: Antifungal activity in vitro, resazurin growth inhibition: Scedosporium prolificans (IHEM21157)
Outline: (§2)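 Fungi (10^3 cfu/well) grown in RPMI-1640 with L-glutamine, 2% glucose, MOPS pH 7.0, against 2- or 4-fold compound dilutions up to 64 μM. Dermatophytes incubated one week or more at 27° C. Growth inhibition read fluorimetrically (λex 550, λem 590 nm) after resazurin addition and further incubation.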

[3] = tested on: Cryptococcus neoformans; test: Antifungal activity in vitro, resazurin growth inhibition: Cryptococcus neoformans (B66663)
Outline: as §2

[4] = tested on: Trichophyton rubrum; test: Antifungal activity in vitro, resazurin growth inhibition: Trichophyton rubrum (B68183)
Outline: as §1

[5] = tested on: Microsporum canis; test: Antifungal activity in vitro, resazurin growth inhibition: Microsporum canis (B68128)
Outline: as §1

[6] = tested on: Sporothrix schenkii; test: Antifungal activity in vitro, resazurin growth inhibition: Sporothrix schenkii (B62482)
Outline: as §2

[7] = tested on: Aspergillus fumigatus; test: Antifungal activity in vitro, resazurin growth inhibition: Aspergillus fumigatus (B42928)
Outline: as §2

[8] = tested on: Rhizomucor miehei; test: Antifungal activity in vitro, resazurin growth inhibition: Rhizomucor miehei (IHEM13391)
Outline: as §2

[9] = tested on: Scedosporium apiospermum; test: Antifungal activity in vitro, resazurin growth inhibition: Scedosporium apiospermum (IHEM3817)
Outline: as §2

[10] = tested on: Rhizopus oryzae; test: Antifungal activity in vitro, resazurin growth inhibition: Rhizopus oryzae (IHEM5223)
Outline: as §2

[11] = tested on: Candida parapsilosis; test: Antifungal activity in vitro, resazurin growth inhibition: Candida parapsilosis (B66126)
Outline: as §2

Row | Compound | Inf. G: Trichophyton mentagrophytes B70554, pIC50 [1] | Inf. I: Scedosporium prolificans IHEM21157, pIC50 [2] | Inf. F: Cryptococcus neoformans B66663, pIC50 [3] | Inf. C: Trichophyton rubrum B68183, pIC50 [4] | Inf. B: Microsporum canis B68128, pIC50 [5] | Inf. A: Sporothrix schenkii B62482, pIC50 [6] | Inf. E: Aspergillus fumigatus B42928, pIC50 [7] | Inf. K: Rhizomucor miehei IHEM13391, pIC50 [8] | Inf. H: Scedosporium apiospermum IHEM3817, pIC50 [9] | Inf. J: Rhizopus oryzae IHEM5223, pIC50 [10] | Inf. D: Candida parapsilosis B66126, pIC50 [11]
1 | Clc1ccc2c(c1)-n1cccc1C(c1cc3ccccc3s1)=NC2 [Compound 166] | 5.52 | 5.65 | 6.00 | 5.70 | 5.70 | 5.52 | 6.00 | <4.19 | 4.33 | 5.37 | <4.19
2 | Clc1cccc2c1-n1cccc1C(c1cc3ccccc3s1)=NC2 [Compound 167] | 5.97 | 6.31 | 5.86 | 6.79 | 6.01 | 5.70 | 5.38 | 5.10 | 5.72 | <4.19 | 4.90
3 | Clc1cc(Cl)c2c(c1)-n1cccc1C(c1cc3ccccc3s1)=NC2 [Compound 168] | 6.40 | 6.48 | 6.41 | 6.18 | 4.96 | 6.22 | 6.73 | <4.19 | <4.19 | <4.19 | <4.19
4 | Fc1cccc2cc(C3=NCc4c(Cl)cccc4-n4cccc43)sc12 [Compound 170] | 6.18 | 6.51 | 6.47 | 6.63 | 6.23 | 5.55 | 5.74 | <4.19 | 5.63 | <4.19 | <4.19
5 | Clc1cccc2c1CN=C(c1ccc3ccsc3c1)c1cccn1-2 [Compound 172] | 6.81 | 5.45 | 5.85 | 7.35 | 6.90 | 5.59 | 6.29 | 4.72 | 5.15 | <4.19 | 5.80
6 | Clc1ccc2c(c1)-n1cccc1C(c1ccc3sccc3c1)=NC2 [Compound 173] | 6.51 | 4.54 | 6.41 | 6.41 | 6.54 | 5.70 | 6.30 | 5.08 | 5.08 | <4.19 | 5.71
7 | Clc1cccc2c1-n1cccc1C(c1ccc3sccc3c1)=NC2 [Compound 174] | 6.80 | 4.80 | 6.43 | 6.87 | 6.54 | 6.06 | 6.30 | <4.19 | <4.19 | <4.19 | <4.19

Results, then the molecule that gave them:

Row | Inf. G: Trichophyton mentagrophytes B70554, pIC50 [1] | Inf. I: Scedosporium prolificans IHEM21157, pIC50 [2] | Inf. F: Cryptococcus neoformans B66663, pIC50 [3] | Inf. C: Trichophyton rubrum B68183, pIC50 [4] | Inf. B: Microsporum canis B68128, pIC50 [5] | Inf. A: Sporothrix schenkii B62482, pIC50 [6] | Inf. E: Aspergillus fumigatus B42928, pIC50 [7] | Inf. K: Rhizomucor miehei IHEM13391, pIC50 [8] | Inf. H: Scedosporium apiospermum IHEM3817, pIC50 [9] | Inf. J: Rhizopus oryzae IHEM5223, pIC50 [10] | Inf. D: Candida parapsilosis B66126, pIC50 [11] | Compound
8 | 7.11 | 5.56 | 6.41 | 7.36 | 6.90 | 5.70 | 6.85 | 5.14 | 5.08 | 5.07 | 6.17 | Fc1cccc2c1CN=C(c1ccc3sccc3c1)c1cccn1-2 [Compound 175]
9 | 6.57 | 6.15 | 6.49 | 6.90 | 6.89 | 5.70 | 6.49 | <4.19 | 5.54 | <4.19 | 6.03 | Fc1cc(F)c2c(c1)-n1cccc1C(c1ccc3sccc3c1)=NC2 [Compound 176]
10 | 5.99 | 4.96 | 4.49 | 6.68 | 5.85 | 4.77 | 5.26 | <4.49 | <4.49 | <4.49 | 5.31 | Cc1cccc2c1CN=C(c1ccc3ncsc3c1)c1cccn1-2 [Compound 183]
11 | 6.51 | 6.15 | <4.19 | 7.32 | 6.70 | <4.19 | 6.27 | <4.19 | <4.19 | <4.19 | <4.19 | Clc1cccc2c1CN=C(c1ccc3ncsc3c1)c1cccn1-2 [Compound 184]
12 | 6.04 | 5.16 | 6.33 | 6.73 | 6.39 | 5.28 | 6.29 | <4.19 | 4.41 | <4.19 | 4.23 | Clc1ccc2c(c1)-n1cccc1C(c1ccc3ncsc3c1)=NC2 [Compound 185]
13 | 6.06 | 5.40 | 5.69 | 6.34 | 5.95 | 5.15 | 5.63 | 4.35 | 4.78 | <4.19 | <4.19 | Clc1cccc2c1-n1cccc1C(c1ccc3ncsc3c1)=NC2 [Compound 186]
